Laboratory results taken from patent publication US20070128217A1 (priority 2003, published 2007).

How the values were obtained:
[1] = tested on: antibodies in sera from SARS patients (sera 1a, 1b, 2, 6, 37, 62, London, SARS-yellow, SARS-green); format: binding, human; parameters: Binding of serum 6 to linear peptides of protein X1 of SARS-CoV Urbani / Binding of serum 37 to linear peptides of protein X1 of SARS-CoV Urbani / Binding of serum 6 to looped/cyclic peptide (PEPSCAN-ELISA) / Binding of serum 37 to looped/cyclic peptide (PEPSCAN-ELISA) / Binding of serum 37 to looped/cyclic peptides of protein X1 of SARS-CoV Urbani / Binding of serum 6 to linear peptides of protein X2 / Binding of serum 37 to linear peptides of protein X2 / Binding of serum 37 to looped/cyclic peptides of protein X2 of SARS-CoV Urbani / Binding of serum 6 to linear peptides of protein M of SARS-CoV Urbani / Binding of serum 37 to linear peptides of protein M of SARS-CoV Urbani / Binding of serum 6 to looped/cyclic peptides of protein M of SARS-CoV Urbani / Binding of serum 37 to looped/cyclic peptides of protein M of SARS-CoV Urbani / Binding of serum 6 to linear peptides of protein X3 of SARS-CoV Urbani / Binding of serum 37 to linear peptides of protein X3 of SARS-CoV Urbani / Binding of serum 37 to looped/cyclic peptides of protein X3 of SARS-CoV Urbani / Binding of serum 6 to linear peptides of protein X4 of SARS-CoV Urbani / Binding of serum 37 to linear peptides of protein X4 of SARS-CoV Urbani / Binding of serum 37 to looped/cyclic peptides of protein X4 of SARS-CoV Urbani / Binding of serum 6 to linear peptides of protein X5 of SARS-CoV Urbani / Binding of serum 37 to linear peptides of protein X5 of SARS-CoV Urbani / Binding of serum 37 to looped/cyclic peptides of protein X5 of SARS-CoV Urbani / Binding of serum 6 to linear peptides of protein N of SARS-CoV Urbani / Binding of serum 37 to linear peptides of protein N of SARS-CoV Urbani / Binding of serum 6 to linear peptide (PEPSCAN-ELISA) / Binding of serum 1a to looped/cyclic peptides of protein N of SARS-CoV Urbani / Binding of serum 1b to looped/cyclic peptides of protein N of SARS-CoV Urbani / Binding of serum 2 to looped/cyclic peptides of protein N of SARS-CoV Urbani / Binding of serum 6 to looped/cyclic peptides of protein N of SARS-CoV Urbani / Binding of serum 37 to looped/cyclic peptides of protein N of SARS-CoV Urbani / Binding of serum 62 to looped/cyclic peptides of protein N of SARS-CoV Urbani / Binding of serum London to looped/cyclic peptides of protein N of SARS-CoV Urbani / Binding of serum SARS-green to looped/cyclic peptides of protein N of SARS-CoV Urbani: unit not given here
[2] = tested on: rabbit serum obtained by immunizing a rabbit with the SARS-CoV strain Frankfurt 1; format: binding; parameters: Binding of a rabbit serum to linear peptides / Binding of a rabbit serum to looped peptides / Rabbit serum linear peptides / Rabbit serum looped peptides / Binding of a rabbit serum to linear peptides of protein N of SARS-CoV Urbani (Rabbit serum linear peptides) / Binding of a rabbit serum to looped/cyclic peptides of protein N of SARS-CoV Urbani (Rabbit serum looped peptides): unit not given here
[3] = tested on: control sera (pooled serum of ten healthy LUMC hospital workers; commercial negative donor pooled serum from the Dutch bloodbank); format: binding, human; parameters: Binding of Control serum LUMC to linear peptides / Binding of Control serum Blood-bank to linear peptides / Binding of Control serum LUMC to looped peptides / Binding of Control Serum Blood-Bank to Looped peptides / Binding of Control serum LUMC to linear peptides of the protein M of SARS-CoV Urbani / Binding of Control serum Blood-bank to linear peptides of the protein M of SARS-CoV Urbani / Binding of Control serum LUMC to looped peptides of the protein M of SARS-CoV Urbani / Binding of Control Serum Blood-Bank to Looped peptides of the protein M of SARS-CoV Urbani: unit not given here
[4] = tested on: recombinant human anti-SARS-CoV antibody 03-018; format: binding; parameters: Binding of antibody 03-018 to linear peptides of the N protein of SARS-CoV Urbani / Binding of antibody 03-018 to looped/cyclic peptides of the N protein of SARS-CoV Urbani: unit not given here

Row | Sequence | Binding of serum 1a to linear peptides of protein N of SARS-CoV Urbani [1] | Binding of serum 1a to looped/cyclic peptides of protein N of SARS-CoV Urbani [1] | Binding of serum 1b to linear peptides of protein N of SARS-CoV Urbani [1] | Binding of serum 1b to looped/cyclic peptides of protein N of SARS-CoV Urbani [1] | Binding of serum 2 to linear peptides of protein N of SARS-CoV Urbani [1] | Binding of serum 2 to looped/cyclic peptides of protein N of SARS-CoV Urbani [1] | Binding of serum 6 to looped/cyclic peptides of protein N of SARS-CoV Urbani [1] | Binding of serum 37 to looped/cyclic peptides of protein N of SARS-CoV Urbani [1] | Binding of serum 62 to looped/cyclic peptides of protein N of SARS-CoV Urbani [1] | Binding of serum London to looped/cyclic peptides of protein N of SARS-CoV Urbani [1] | Binding of serum SARS-green to looped/cyclic peptides of protein N of SARS-CoV Urbani [1] | Binding of serum SARS-yellow to looped/cyclic peptides of protein N of SARS-CoV Urbani [1] | Binding of a rabbit serum to linear peptides of protein N of SARS-CoV Urbani (Rabbit serum linear peptides) [2] | Binding of a rabbit serum to looped/cyclic peptides of protein N of SARS-CoV Urbani (Rabbit serum looped peptides) [2] | Binding of Control Serum Blood-Bank to Looped peptides [3] | Binding of Control serum Blood-bank to linear peptides [3] | Binding of Control serum LUMC to linear peptides [3] | Binding of Control serum LUMC to looped peptides [3] | Binding of antibody 03-018 to linear peptides of the N protein of SARS-CoV Urbani [4] | Binding of antibody 03-018 to looped/cyclic peptides of the N protein of SARS-CoV Urbani [4] | further results
1 | GPTDSTDNNQNGGRN | 0.3 | 0.4 | 0.2 | 0.4 | 0.4 | 0.6 | 0.3 | 0.9 | 0.6 | 0.5 | 1.4 | 0.4 | 0.1 | 0.4 | 0.6 | 0.8 | 0.7 | 0.5 | 0.2 | 0.2 | Binding of serum 6 to linear peptides of protein N of SARS-CoV Urbani [1]: 0.2; Binding of serum 37 to linear peptides of protein N of SARS-CoV Urbani [1]: 0.8; Binding of serum 62 to linear peptides of protein N of SARS-CoV Urbani [1]: 0.6; Binding of serum London to linear peptides of protein N of SARS-CoV Urbani [1]: 0.6; Binding of serum SARS-green to linear peptides of protein N of SARS-CoV Urbani [1]: 0.6; Binding of serum SARS-yellow to linear peptides of protein N of SARS-CoV Urbani [1]: 0.6
2 | GQGVPINTNSGPDDQ | 0.3 | 0.2 | 0.1 | 0.1 | 0.2 | 0.3 | 0.1 | 0.4 | 0.1 | 0.3 | 0.1 | 0.1 | 0.1 | 0.0 | 0.5 | 0.5 | 0.5 | 0.3 | 0.1 | 0.2 | Binding of serum 6 to linear peptides of protein N of SARS-CoV Urbani [1]: 0.2; Binding of serum 37 to linear peptides of protein N of SARS-CoV Urbani [1]: 0.8; Binding of serum 62 to linear peptides of protein N of SARS-CoV Urbani [1]: 0.6; Binding of serum London to linear peptides of protein N of SARS-CoV Urbani [1]: 0.6; Binding of serum SARS-green to linear peptides of protein N of SARS-CoV Urbani [1]: 0.5; Binding of serum SARS-yellow to linear peptides of protein N of SARS-CoV Urbani [1]: 0.6
3 | GQQQQGQTVTKKSAA |  | 0.2 |  | 0.1 |  | 0.3 | 0.1 | 0.4 | 0.4 | 0.3 | 0.1 | 0.1 | 0.2 | 0.1 | 0.5 | 0.9 | 0.9 | 0.5 | 0.1 | 0.2 | Binding of serum 1a to linear peptide (PEPSCAN-ELISA) [1]: 0.3; Binding of serum 1b to linear peptide (PEPSCAN-ELISA) [1]: 0.1; Binding of serum 2 to linear peptide (PEPSCAN-ELISA) [1]: 0.3; Binding of serum 6 to linear peptide (PEPSCAN-ELISA) [1]: 0.3; Binding of serum 37 to linear peptide (PEPSCAN-ELISA) [1]: 0.8; Binding of serum 62 to linear peptide (PEPSCAN-ELISA) [1]: 0.8; Binding of serum London to linear peptide (PEPSCAN-ELISA) [1]: 0.5; Binding of serum SARS-green to linear peptide (PEPSCAN-ELISA) [1]: 0.1; Binding of serum SARS-yellow to linear peptide (PEPSCAN-ELISA) [1]: 0.5
4 | GQTVTKKSAAEASKK |  | 0.2 |  | 0.1 |  | 0.2 | 0.1 | 0.4 | 0.2 | 0.3 | 0.0 | 0.2 | 0.2 | 0.2 | 0.4 | 0.7 | 0.7 | 0.3 | 0.1 | 0.2 | Recognition of the peptide by sera of SARS-CoV infected individuals, and form (linear, looped/cyclic) in which it is recognized [1]: recognized in linear form
